Square brackets hold non-standard residues; d marks the D form. Peptide text beside a SMILES is read from it. Dmt = Cc1cc(O)cc(C)c1C[C@H](N)C(=O)O
Tests used:
[1] = after 4 days of incubation
Description: Human plasma was obtained from the Belgian Red Cross (Vlaams-Brabant, Leuven). […] Frozen (−20° C.) human plasma samples were thawed and thermostated to 37+2° C. Dissolution of the lyophilized peptide and consecutive dilutions were performed in water. […] On every time point 100 μL spiked plasma was transferred to a 500 μL Eppendorf tube and a protein crash was performed using 300 μL methanol+0.1% TFA (4° C.). Suspensions were vortexed for 15 seconds and placed at 4° C. for 30 to 45 minutes. After centrifugation at 14000 rpm for 20 minutes, 100 μL supernatant was diluted with 100 μL water in the injection vial. Injection samples were vortexed for 5 seconds and placed in the autosampler. […] Concentrations were calculated by use of the calibration curve and transferred to a semi-log chart presenting the log concentrations as a function of time. The optimum curve was used to calculate the peptide-half life. Calculations were performed using Microsoft® Office Professional 2010 Excel.

[2] = Peptide gelation (tilted tube / inverted vial test, minimum gelation concentration); assay type: physicochemical; conditions: for Minimum gelation concentration: PBS 10 mM; for Minimum gelation concentration (w/v % in PBS): '/' = no gel
Summary of the method: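 TFA salt of peptide dissolved (1 or 2 mg per 100 μL) in PBS pH 7.4 or 0.9% NaCl saline, vortexed and sonicated, then left overnight at room temperature. Gelation judged by inverted vial test: no gravitational flow means gel. Rheology by dynamic rheometry at 37° C (G′, G″, tan δ).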

[3] = Dynamic rheometry of hydrogels (storage modulus G′); assay type: physicochemical; conditions: 2% w/v in PBS, 37° C., value at 1 Hz
Description: Dynamic rheometry measurements were performed on an AR-G2 rheometer (TA Instruments) equipped with electrically heated plates and a 10 mm-diameter aluminium parallel plate-plate geometry. Viscoelastic properties were measured by oscillatory frequency sweeps at 37° C. in the range between 0.01 and 10 Hz, using a controlled strain of 0.05%. Hydrogel samples were made 12 h in advance. A ring-shaped reservoir filled with a saturated NH4Cl solution was used as a solvent trap.
To evaluate the mechanical properties of these hydrogels in a more quantitative manner, rheological experiments were performed. The viscoelastic properties of the peptide hydrogels were measured by dynamic rheometry at 37° C. This technique allowed to measure the storage modulus G′ (corresponding to the material's stiffness or rigidity), loss modulus G″ (corresponding to the viscous properties of the material) and loss factor tan (o) (ratio of G″ over G′).

[4] = test system: L929 (mouse fibroblast) cells; assay: Live/Dead cell viability assay on hydrogels (Example 5); assay type: cell-based; conditions: 24 h on hydrogel
Description: L929 (mouse fibroblast) cells were obtained from ATCC® and maintained in Gibco®, MEM with GlutaMAX supplemented with 10% FBS (SAFC, Sigma), 1% Anti-Anti (100×, Gibco®) and 1% NEAA (100×, Gibco®). Cells were maintained on tissue culture treated polystyrene (TCPS) plates at 37° C. in a humified atmosphere containing 5% CO2 and 95% air. Cells were trypsinized, harvested and counted using a hemocytometer. The resulting cell suspension was diluted in Gibco® solution before addition to the hydrogels. For ease of handling and to produce homogeneous clear hydrogels, 100 μL of peptide hydrogels were prepared (in corresponding gelation conditions, see above) in Eppendorf tubes (0.5 ml) and transported using a 21G syringe to 96-well plates after simultaneously heating (60° C.) and mixing (900 rpm) using an Eppendorf ThermoMixer®. The hydrogels were left to set overnight in the wells at room temperature and were subsequently washed twice with 200 μL of Anti-Anti (100×, Gibco®) solution, 2 h each. After washing, media was removed and cells were seeded evenly over hydrogels. Cells were plated in duplicate on all hydrogels and control wells. Viability of cells on hydrogels was determined using the traditional Live/dead cell viability assay (Invitrogen) after culture durations of 24 h.
Plates were incubated in 5% CO2 at 37° C. for 1 day to allow cell attachment and spreading to occur. […]

[5] = TEM / cryo-TEM fibre morphology of hydrogels; assay type: physicochemical
Description: Formvar carbon-coated 400-mesh copper grids (Agar Scientific, Stansted, United Kingdom) were treated with plasma using an ELMO Glow discharge system to clean the grid surface and to render the carbon surface hydrophilic. Hydrogel samples were prepared 12 h in advance as described above. Small aliquots of sample (5 μL) were pipetted onto the carbon grids for adsorption. After 30 s, excess of sample was removed by using a Whatman 541 filter paper. The loaded grids were stained during 10 s with 1% uranyl formate after which the grids were air-dried. Samples were analysed using a JEOL JEM-1400 transmission electron microscope, operating at accelerating voltage of 120 kV. Images were recorded on a CMOS TemCam-F416 camera and accessory software of TVIPS.
200-mesh copper grids coated with perforated carbon film (Lacey carbon film: ProSci-Tech Old, Australia) were used and were glow discharged in nitrogen for 5 s immediately prior to use. Hydrogel samples were prepared 12 h in advance as described above. Small aliquots of sample (4 μL) were pipetted onto the carbon grids for adsorption. After 30 s, excess of sample was removed by using a Whatman 541 filter paper. The grid was then plunged into liquid ethane cooled by liquid nitrogen. Frozen grids were stored in liquid nitrogen until required. Samples were analysed using a Gatan 626 cryoholder and Tecnai 12 Transmission electron microscope, operating at accelerating voltage of 120 kV. Images were recorded using an FEI Eagle 4k×4k CCD camera.

[6] = In vivo monitoring of cargo release with fluorescence imaging; set-up: species or system athymic nude mice
Description: Fluorescent cargo—IRDye800CW N-hydroxysuccinimide (NHS) ester (Li-COR Biosciences) was solubilized at 4 mg/l in PBS. The solution was stirred for 2 h in order to hydrolyze the NHS ester, resulting in compound 2 as fluorescent cargo (MW=1068 g/mol). The dye solution was either used as such, or incorporated within the hydrogel as described below.
Animal study protocols were approved by the Ethical Committee for Animal Experiments of the Vrije Universiteit Brussel (also for section 2.5.). After subcutaneous injection of 150 μl of hydrogel containing 0.5 nmol of IRDye 800CW in athymic nude mice (Charles River, n=3 per group), fluorescence reflectance images of the posterior side of the mice were acquired over 24 h using the Fluobeam800 (Fluoptics) under 2.5% isoflurane anesthesia (Iso-Vet, Eurovet NV/SA). Fluorescence images were overlaid with white light images for anatomical localization. Regions of interest (ROI) were drawn around the site of injection and total fluorescence signal was measured within these ROIs using ImageJ software.

[7] = Stability and degradability of biogels in human plasma (Example 8); assay type: in vitro ADME; conditions: human plasma, 37° C.
Description: After centrifugation at 14 000 rpm for 15 minutes, 100 μL supernatant was diluted with 100 μL milliQ water in the injection vial. Injection samples were vortexed for 5 seconds and were analyzed by HPLC. […] Calculations were performed using Microsoft® Office Professional 2010 Excel.

Male CD1 mice = assay: Radiant heat tail-flick test of biogel compositions s.c. (in solution or as a gel); assay type: in vivo, mouse; conditions: injection volume of 150 μl
Description: Male CD1 mice (6-8 weeks old, body weight average 30 g) were obtained from Charles River (Sulzfeld, Germany). Mice were group-housed in a temperature controlled room with a 12 h light/dark cycle and with free access to food and water. All animal studies were conducted in accordance with ethical guidelines and animal welfare standards according to Austrian regulations for animal research, and were approved by the Committee of Animal Care of the Austrian Federal Ministry of Science and Research. […]
The radiant heat tail-flick test was used to assess antinociceptive effects of tested drugs after s.c. administration in mice using an UB 37360 Ugo Basile analgesiometer (Ugo Basile s.r.l., Varese, Italy) as described previously (A. Novoa et al., 2012). The reaction time required by the mouse to remove its tail due to the radiant heat was measured and defined as the tail-flick latency. […] The antinociceptive response was expressed as percent of Maximum Possible Effect (% MPE)=[(TL-BL)/(cut-off time-BL)]×100. Data were analyzed with ANOVA using Tukey's multiple comparison test, and graphically processed with the GraphPad Prism Software (GraphPad Software Inc., San Diego, CA). […]

[8] = 37° C., 9 μM
Description: Human plasma was obtained from the Belgian Red Cross (Vlaams-Brabant, Leuven). Prior to the stability test, selectivity, stability of the compound in the injection solvent, linearity, accuracy and precision of the method were investigated. Frozen (−20° C.) human plasma samples were thawed and thermostated to 37±2° C. Dissolution of the lyophilized peptide and consecutive dilutions were performed in water. The resulting aqueous solutions of each peptide individually was spiked in human plasma (10:90 v/v) with final plasma concentrations of 9 μM.
On every time point 100 μL spiked plasma was transferred to a 500 μL Eppendorf tube and a protein crash was performed using the corresponding precipitation solvent (4° C.). Suspensions were vortexed for 15 s and placed at 4° C. for 30 to 45 min. After centrifugation at 18 625 g for 20 min, 100 μL supernatant was diluted with 100 μL water in the injection vial.
Injection samples were vortexed for 5 sand placed in the autosampler. […] Concentrations were calculated by use of the calibration curve and transferred to a semi-log chart presenting the log concentrations as a function of time. The optimum curve was used to calculate the peptide half-life. Calculations were performed using Microsoft® Office Professional 2010 Excel.

[9] = In vivo monitoring of cargo release with SPECT/CT; set-up: species or system C57Bl/6J mice
Description: The ^111In-labeled molecules were diluted up to 1 ml with PBS and either used as such, or incorporated within the hydrogel as described below.
Images were reconstructed using a filtered back-projection algorithm.
Images were quantified using the software AMIDE (sourceforge.net).

For `NCCCC[C@@H](NC(=O)[C@@H](Cc1ccccc1)NC(=O)[C@@H](CCC(N)=O)NC(=O)[C@@H](Cc1ccccc1)NC(=O)[C@@H](CCC(=O)O)NC(=O)[C@H](N)Cc1ccccc1)C(N)=O` [peptide 4, H-DPhe-DGlu-DPhe*-DGln-DPhe-DLys-NH2] (H-[dF][dE][dF][dQ][dF][dK]-NH2), the “Stability after incubation with human plasma” value [1] was “remained intact”, the Minimum gelation concentration ([2]; pH 7.4) was 24 mM and the Minimum gelation concentration ([2]; pH 7.4 (text, Examples 1-2)) was 2 % w/v. For the same compound, the “Minimum gelation concentration (w/v % in PBS)” value [2] was 3 w/v %, the “Storage modulus G′” value [3] was “ca. 1000 Pa” and the “Cytotoxicity (Live/Dead cell viability, qualitative)” value [4] was “evenly distributed number of red (dead cells) and green (live cells) fluorescent cells”. The Fibre thickness ([5]; TEM, Example 2) was “ca. 10 nm”.
For IRDye 800CW carboxylate, the “Time the fluorescent signal remains visible” value ([6]; dye co-formulated within hydrogel of peptide 2 (2 w/v%), s.c.) was “more than 24 h” and the “Fluorescent signal at the injection site” value ([6]; dye injected s.c. as solution) was “reduces drastically within approximately two hours”.
For `Cc1cc(O)cc(C)c1C[C@H](N)C(=O)N[C@H](CCCNC(=N)N)C(=O)N[C@@H](Cc1ccccc1)C(=O)N[C@@H](Cc1ccccc1)C(=O)N[C@@H](CCC(N)=O)C(=O)N[C@@H](Cc1ccccc1)C(=O)N[C@@H](CCC(N)=O)C(=O)N[C@@H](Cc1ccccc1)C(=O)N[C@@H](CCCCN)C(N)=O` [CM-57, Dmt-DArg-Phe-Phe-Gln-Phe*-Gln-Phe-Lys-NH2] (H-[Dmt][dR]FFQFQFK-NH2; N-terminus assumed), the “Time at which degradation of the heptapeptide into the N-terminal pentapeptide started” value [7] was 7.5 min, the “Time at which degradation of the pentapeptide into tripeptide was observed” value [7] was 60 min and the “Time of appearance of the heptapeptide (loss of Phe-Lys-NH2)” value [7] was 2.5 min. The half-life at 14 μM ([7]; human, in solution, 14 μM) was about 17 min and the “Release profile as biogel in tail-flick test” value (Male CD1 mice) was “showed the desired sustained release curve”.
With `NCCCC[C@@H](N)C(=O)N[C@H](Cc1ccccc1)C(=O)N[C@H](CCC(N)=O)C(=O)N[C@H](Cc1ccccc1)C(=O)N[C@H](CCC(=O)O)C(=O)N[C@H](Cc1ccccc1)C(N)=O` [peptide 24, H-DLys-DPhe-DGln-DPhe*-DGlu-DPhe-NH2] (H-[dK][dF][dQ][dF][dE][dF]-NH2) the “Minimum gelation concentration (w/v % in PBS)” value [2] was 2 w/v %, the “Stability in human plasma” value [8] was “remains intact after 25 h of incubation” and the Fibre diameter ([5]; cryoTEM and negative staining, Example 9) was about 5 nm.
In the case of “DOTA-4-amino-2-cyclohexylmethyl-indolo[3,4-c]azepin-2-on [small molecule 3]”, the “Clearance from the injection site” value ([9]; 111In-labeled cargo s.c. in solution, 1 mg/ml) is reported as “totally cleared within three hours” and the Release profile ([9]; co-formulated within hydrogel of peptide 2, s.c.) is reported as “released in a rather fast manner”.
